Measurements taken from BigSolDB 2.1.

Settings: in n-hexane

Structure (SMILES) | solubility (mole fraction) (293.15 K) | solubility (mole fraction) (298.15 K) | solubility (mole fraction) (303.15 K) | solubility (mole fraction) (310.15 K) | solubility (mole fraction) (315.15 K)
NC1=NCCC2(CCCCC2)S1 | 3.81e-05 | 5.62e-05 | 7.2e-05 | 0.000105 | 0.000129
CNC1=NCCC2(CCCCC2)S1 | 5.39e-05 | 6.26e-05 | 6.91e-05 | 8.03e-05 | 8.67e-05
CCNC1=NCCC2(CCCCC2)S1 | 0.0025 | 0.0028 | 0.0031 | 0.0037 | 0.0043
